Legend:
Plasmin = Plasmin (Homo sapiens, UniProt P00747); test: Chromogenic substrate assay, Ki determination, Plasmin; type: biochemical
Protocol: (§1) The inhibitor (I) constants (Ki) were determined for the inhibition of a series of human enzymes (FXa, thrombin, trypsin, plasmin, protein Ca, streptokinase, tPA, and urokinase) by each compound. Chromogenic substrate assays were performed using a Labsystems IEMS (Cergy Pontoise, France) microtiter plate reader. In each assay, the compound was tested at a minimum of seven concentrations in duplicate to obtain an inhibition curve. Assays were performed according to the following general procedure. In a 96-well microtiter plate, 25 μL of compound, inhibitor solution or buffer was added to 50 μL of substrate. A volume of 25 μL of enzyme solution was added just before the plate was placed in the microtiter plate reader for 1 h at 37 °C. The hydrolysis of the substrate yields p-nitroaniline, which was continuously monitored spectrophotometrically at 405 nm. Data were collected and the initial rate of substrate hydrolysis [Vo (mOD/minute)] was calculated. Following Michaelis-Menten kinetics, the affinity of the enzyme for the substrate, in the absence of the inhibitor (Km) and in the presence of an inhibitor (Kp), was determined to be the negative inverse x-intercept of Lineweaver–Burk plots. The dissociation constant for inhibition (Ki) was calculated using the following equation: Ki = (Km·[I])/(Kp − Km) as described by Williams and Morrison[40].

tPA = tPA (Homo sapiens, UniProt P00750); test: Chromogenic substrate assay, Ki determination, tPA; type: biochemical
Protocol: as §1

FXa = target: T1, FXa (Homo sapiens, UniProt P00742); test: Inhibition of amidolytic activity of FXa toward S-2222 (Michaelis-Menten, Lineweaver-Burk; with or without TFPI); type: biochemical; conditions: for slope of inhibition activity plot: FXa
T1 construct: purchased Haematologic Technologies (Essex Junction, VT, USA)
Protocol: To elucidate the mechanisms responsible for inhibition of coagulation and platelet aggregation by compounds 1–4, inhibition of FXa activity was determined using chromogenic substrates. […] We observed a decrease in Vmax, with no effect on the Km of FXa toward S-2222 in the presence of compound 1. […] We also observed a slope of 0.401 for the control without compound 2, and slopes of 0.442 and 0.465 for compound 2 at concentrations of 2 and 5 µM, respectively. […] We observed a decrease in Vmax, with no effect on the Km of FXa toward S-2222 in the presence of compound 2. […] Inhibition activity plots were obtained for different concentrations of compound 3, showing a slope of 0.388 for the control without compound 3, and slopes of 0.408 and 0.464 for compound 3 at concentrations of 2 and 5 µM, respectively. […] We also observed a slope of 0.363 for the control without compound 4, and slopes of 0.376 and 0.398 for compound 4 at concentrations of 2 and 5 µM, respectively. […] We observed a decrease in Vmax, with no effect on the Km of FXa toward S-2222 in the presence of compound 4.
(§2) Figure 6 Effects of compounds 1–4 on inhibition and production of FXa. […] The plots represent means of three independent measurements. (E) Human umbilical vein endothelial cells (HUVECs) were pre-incubated with the indicated concentration of each compound for 10 min. HUVECs stimulated with tumor necrosis factor-α (TNF-α, 10 ng/mL for 6 h) were incubated with FVIIa (10 nM) and FX (175 nM) in the absence or presence of anti-TF IgG (25 µg/mL). FXa production was determined as described in the “ Supplementary Materials and Methods” section. D = 0.2% DMSO used as the vehicle control. (F) Inhibition of FXa by each compound (5 μM) with or without TFPI (2 nM) was monitored using a chromogenic assay. ^* p < 0.05 vs. TNF-α alone (E) or each compound (F) alone, analyzed via one-way ANOVA, followed by Tukey multiple comparison testing.
Each compound with or without TFPI was dissolved in 50 mM Tris-HCl buffer (pH 7.4) containing 7.5 mM EDTA and 150 mM NaCl. Following a 2-min incubation at 37 °C, FXa solution (150 μL, 1 U/mL) was added, followed by incubation at 37 °C for 1 min. S-2222 (an FXa substrate, 150 μL, 1.5 mM) solution was subsequently added, and the absorbance at 405 nm was monitored for 20 min using a spectrophotometer (TECAN, Männedorf, Switzerland). The absorbance-time curve and the slope of the curve (Vi) were used to represent the activity of the enzyme. Distilled water served as a control (the slope of curve V0). The inhibitory effect was calculated according to equation (1):1 Inhibitoryrate(%)=(V0−Vi)/V0×100 where V0 represents the slope of the vehicle and Vi represents the slope of the samples.

HUVECs = test: Production of factor Xa on the surface of TNF-α-stimulated HUVECs; type: cell-based, human; conditions: 10 min pre-incubation
Protocol: as §2
Production of FXa by FVIIa is dependent on tissue factor (TF) expression in tumor necrosis factor-α (TNF-α)-stimulated HUVECs[22]. Thus, we investigated the effects of compounds 1–4 on the production of FXa by FVIIa. HUVECs were stimulated with TNF-α to induce TF expression, causing an 11.9-fold increase in the rate of FX production by FVIIa (109.4 ± 9.2 nM) over that of non-stimulated HUVECs (9.2 ± 0.8 nM). […] We next determined whether each compound compete with tissue factor pathway inhibitor (TFPI) in the inhibition of FXa. […]

T1 sequence (P00742 235-488 limits assumed): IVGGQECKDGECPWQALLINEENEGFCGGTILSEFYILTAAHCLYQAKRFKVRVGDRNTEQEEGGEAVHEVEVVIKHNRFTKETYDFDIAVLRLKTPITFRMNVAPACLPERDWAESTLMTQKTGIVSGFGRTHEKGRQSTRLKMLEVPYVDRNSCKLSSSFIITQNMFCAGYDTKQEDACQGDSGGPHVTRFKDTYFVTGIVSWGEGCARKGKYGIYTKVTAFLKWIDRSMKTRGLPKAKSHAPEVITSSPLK
T1 sequence (P00742 41-179 limits assumed): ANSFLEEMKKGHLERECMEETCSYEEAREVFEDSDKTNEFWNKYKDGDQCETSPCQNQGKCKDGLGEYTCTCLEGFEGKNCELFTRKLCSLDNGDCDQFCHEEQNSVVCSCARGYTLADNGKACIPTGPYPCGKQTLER
Chain of tPA (P00750 36-562): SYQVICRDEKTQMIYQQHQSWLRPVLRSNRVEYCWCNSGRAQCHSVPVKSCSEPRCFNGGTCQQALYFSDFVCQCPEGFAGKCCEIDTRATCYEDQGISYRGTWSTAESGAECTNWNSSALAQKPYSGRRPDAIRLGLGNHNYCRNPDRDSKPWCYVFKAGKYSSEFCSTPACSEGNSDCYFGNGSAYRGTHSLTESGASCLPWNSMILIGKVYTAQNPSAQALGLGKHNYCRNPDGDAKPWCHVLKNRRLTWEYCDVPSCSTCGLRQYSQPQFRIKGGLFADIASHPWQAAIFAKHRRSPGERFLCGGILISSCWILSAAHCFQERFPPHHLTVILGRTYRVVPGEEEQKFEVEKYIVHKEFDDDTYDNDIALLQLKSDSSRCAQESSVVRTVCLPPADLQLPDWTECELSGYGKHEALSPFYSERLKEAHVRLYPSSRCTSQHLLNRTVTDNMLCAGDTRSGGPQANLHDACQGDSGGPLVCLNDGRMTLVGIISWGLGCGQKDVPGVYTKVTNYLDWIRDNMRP
Chain of Plasmin (P00747 581-810 limits assumed): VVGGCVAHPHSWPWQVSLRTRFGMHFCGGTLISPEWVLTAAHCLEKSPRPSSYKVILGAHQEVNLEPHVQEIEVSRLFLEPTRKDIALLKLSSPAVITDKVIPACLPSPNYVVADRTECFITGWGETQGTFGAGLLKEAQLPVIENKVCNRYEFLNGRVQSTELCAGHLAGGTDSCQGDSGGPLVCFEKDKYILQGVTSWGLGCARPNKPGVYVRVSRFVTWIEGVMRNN
Chain of Plasmin (P00747 97-580 limits assumed): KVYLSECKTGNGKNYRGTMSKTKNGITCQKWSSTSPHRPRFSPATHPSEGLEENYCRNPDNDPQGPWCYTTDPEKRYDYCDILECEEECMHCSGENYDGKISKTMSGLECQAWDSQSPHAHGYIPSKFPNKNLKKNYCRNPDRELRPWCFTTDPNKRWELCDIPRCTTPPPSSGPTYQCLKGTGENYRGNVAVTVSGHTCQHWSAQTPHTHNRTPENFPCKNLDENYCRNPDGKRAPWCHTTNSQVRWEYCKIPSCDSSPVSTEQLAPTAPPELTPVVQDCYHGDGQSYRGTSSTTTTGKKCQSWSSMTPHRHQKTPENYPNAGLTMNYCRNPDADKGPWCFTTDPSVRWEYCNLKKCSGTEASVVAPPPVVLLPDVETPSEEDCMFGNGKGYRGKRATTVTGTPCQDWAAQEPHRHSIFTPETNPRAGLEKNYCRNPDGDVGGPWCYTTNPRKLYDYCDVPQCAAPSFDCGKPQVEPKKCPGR

With CC(=O)NCCc1ccc2c(c1)O[C@H](c1ccc(O)c(O)c1)[C@H](NC(C)=O)O2 [Compound 1, (2 R,3 R)-2-(3′,4′-dihydroxyphenyl)-3-acetylamino-7-(N-acetyl-2″-aminoethyl)-1,4-benzodioxane] the “Ratio = Ki enzyme/Ki Factor Xa, Plasmin” value (Plasmin) was >100, the Ki (Plasmin; substrate S-2251) was > 300 µM and the “Ratio = Ki enzyme/Ki Factor Xa, tPA” value (tPA) was >100. The Ki (tPA; substrate S-2228) was > 300 µM, the “Km of FXa toward S-2222 in the presence of compound” value (FXa) was “no effect” and the “Vmax of FXa toward S-2222 in the presence of compound” value (FXa) was “decrease”. For the same compound, the “type of inhibition of FXa (Lineweaver-Burk plots)” value (FXa; S-2222) was “noncompetitive inhibition”, the “slope of inhibition activity plot” value (FXa; compound at 2 µM, S-2222) was 0.707 and the “slope of inhibition activity plot” value (FXa; compound at 5 µM, S-2222) was 0.957. For the same compound, the Ki (FXa; substrate S-2222) was 2.96 µM and the “inhibition of FXa production (generation) by FVIIa in HUVECs” value (HUVECs) was “strongest inhibition”.

From article PMC5554137, “Evaluation of novel factor Xa inhibitors from Oxya chinensis sinuosa with anti-platelet aggregation activity” (Scientific Reports, 2017)
